Earlier results on two compounds are cited in patent US8999405B1 (priority 2013, dated 2015).

The term pKa denotes the negative logarithm of the acid dissociation constant.

The conditions of data set [1]: alkaline nitrogenous base of nicotine.

`CN1CCC[C@H]1c1cccnc1.O=C(O)c1ccccc1C(=O)O` [Phthalic]: the “Solubility Alcohol” value (alcohol) is “soluble”. Also, the “Solubility Other” value (other solvent, named in the cell) is “insoluble: ether”. Moreover, the “Solubility Water” value (water) is “soluble”.

In the case of `CN1CCC[C@H]1c1cccnc1` [nicotine I, 3-(1-methyl-2-pyrrolidinyl) pyridine], the pKa in data set [1] is approximately 8.5.
